As a reminder, the IC50 is the concentration at which inhibition is half-maximal.

The target in this test is T1, KCNT1 (KNa1.1, Slack) (Homo sapiens, UniProt Q5JUK3).
T1 construct: expressed in transfected cells; host or cells: HEK-TREX (tetracycline-inducible)
T1 sequence (Q5JUK3 1-1230): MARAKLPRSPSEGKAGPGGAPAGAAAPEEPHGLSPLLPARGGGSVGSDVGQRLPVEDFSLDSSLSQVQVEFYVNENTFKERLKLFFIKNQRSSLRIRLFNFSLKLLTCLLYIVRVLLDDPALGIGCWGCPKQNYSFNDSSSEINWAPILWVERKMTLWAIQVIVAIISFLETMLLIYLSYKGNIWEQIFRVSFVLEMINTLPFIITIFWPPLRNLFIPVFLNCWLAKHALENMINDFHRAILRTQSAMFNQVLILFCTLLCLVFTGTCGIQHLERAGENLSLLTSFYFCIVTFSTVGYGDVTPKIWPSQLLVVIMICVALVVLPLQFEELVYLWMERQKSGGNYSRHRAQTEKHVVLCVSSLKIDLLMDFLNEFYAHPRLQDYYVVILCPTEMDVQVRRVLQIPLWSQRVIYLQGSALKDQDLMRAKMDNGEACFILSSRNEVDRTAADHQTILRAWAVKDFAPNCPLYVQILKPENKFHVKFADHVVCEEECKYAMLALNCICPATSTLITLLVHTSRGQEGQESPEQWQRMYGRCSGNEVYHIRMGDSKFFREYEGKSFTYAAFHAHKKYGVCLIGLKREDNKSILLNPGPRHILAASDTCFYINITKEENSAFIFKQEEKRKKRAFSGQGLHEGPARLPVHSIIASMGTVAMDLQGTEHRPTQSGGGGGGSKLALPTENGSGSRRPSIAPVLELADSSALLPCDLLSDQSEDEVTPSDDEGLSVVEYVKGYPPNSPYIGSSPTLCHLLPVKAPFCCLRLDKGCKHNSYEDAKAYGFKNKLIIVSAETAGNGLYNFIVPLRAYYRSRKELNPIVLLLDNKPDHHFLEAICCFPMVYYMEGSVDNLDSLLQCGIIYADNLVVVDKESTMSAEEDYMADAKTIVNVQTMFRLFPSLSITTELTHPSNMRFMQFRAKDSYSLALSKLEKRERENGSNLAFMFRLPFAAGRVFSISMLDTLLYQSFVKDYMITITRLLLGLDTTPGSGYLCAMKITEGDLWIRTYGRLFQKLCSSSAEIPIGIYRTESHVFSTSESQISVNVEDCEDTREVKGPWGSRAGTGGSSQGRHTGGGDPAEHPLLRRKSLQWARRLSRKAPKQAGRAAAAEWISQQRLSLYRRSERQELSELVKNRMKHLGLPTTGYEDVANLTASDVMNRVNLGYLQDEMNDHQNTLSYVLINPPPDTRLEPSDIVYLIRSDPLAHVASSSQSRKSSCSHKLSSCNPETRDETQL
Briefly: KCNT1 patch clamp assay (SyncroPatch 384PE, HEK-TREX cell line). Format: cell-based. Particulars: tetracycline inducible HEK-TREX cell line, perforated patch, step to 0 mV, room temperature; read-out: KCNT1-WT IC50. Here is the method:
Currents were recorded using the SyncroPatch 384PE automated, patch clamp system. Pulse generation and data collection were performed with PatchController384 V1.3.0 and DataController384 V1.2.1 (Nanion Technologies). The access resistance and apparent membrane capacitance were estimated using built-in protocols. Current were recorded in perforated patch mode (10 μM escin) from a population of cells. The cells were lifted, triturated, and resuspended at 800,000 cells/ml. The cells were allowed to recover in the cell hotel prior to experimentation. Currents were recorded at room temperature. […] The extracellular solution was used as the wash, reference and compound delivery solution. […] Escin is made at a 5 mM stock in water, aliquoted, and stored at −20° C. The compound plate was created at 2× concentrated in the extracellular solution. The compound was diluted to 1:2 when added to the recording well. The amount of DMSO in the extracellular solution was held constant at the level used for the highest tested concentration. A holding potential of −80 mV with a 100 ms step to 0 mV was used. […] The average mean current from 3 sweeps was calculated and the % inhibition of each compound was calculated. The % Inhibition as a function of the compound concentration was fit with a Hill equation to derive IC50, slope, min and max parameters.
(In general: The patch-clamp technique gives a direct electrical read-out from membranes.)

Consider `C[C@H](NC(=O)c1cc(C(F)(F)F)nn1C)c1noc(-c2ccnc(C3CC3)c2)n1` [Compound 2a, (S)-N-(1-(5-(2-cyclopropylpyridin-4-yl)-1,2,4-oxadiazol-3-yl)ethyl)-1-methyl-3-(trifluoromethyl)-1H-pyrazole-5-carboxamide], for which the IC50 is not above 1 µM.

These data come from patent US20240043415A1, “KCNT1 INHIBITORS AND METHODS OF USE” (Praxis Precision Medicines, Inc., priority 2020, published 2024).
